In patent EP0717990B1, “COMPOSITION FOR REMEDYING DRUG DEPENDENCE” (TAISHO PHARMACEUTICAL CO. LTD, priority 1993, dated 1995):
Where two headings read alike, the source gives them in different places.

Experiments:
[1] = system: cocaine-dependent monkeys; test: Effect on cocaine-dependent monkeys (drug self-administration); type: in vivo, male cynomolgus monkeys; details: cocaine intake per day, cocaine-dependent cynomolgus monkeys
Protocol: [Investigation on an effect on cocaine-dependent monkeys]
A test was carried out according to the method described in Drug and Alcohol Dependence, 1989, Vol. 24, pp. 135-142.
A catheter was allowed to indwell chronically in the vein of each monkey and the investigation was carried out by a drug self-administration experimental method in which a definite amount of a liquid drug was automatically poured according to a reinforcement schedule when the animal pushed a lever. When the cocaine intake per day was 20 mg/kg/day or more for 10 consecutive weeks or more, it was judged that the dependence was caused.

[2] = system: phencyclidine (PCP)-induced abnormal behavior; test: Antagonism against phencyclidine (PCP)-induced abnormal behavior (head weaving); details: Rattus norvegicus, read-out: ED50 value (mg/kg)
alcohol dependence = test: Effect on alcohol dependence (conditioned place preference in shuttle box); type: in vivo, male Wistar strain rats; details: rats; for Desire-arising effect for ethanol treatment compartment: 30 minutes before ethanol administration
Protocol: [Investigation on an effect on alcohol dependence]
A test was carried out according to the method described in Pharmacology Biochemistry and Behavior, Vol. 35, pp. 485-487 (1990).
Compound B used according to the present invention was administered in a dose of 0.1 or 1 mg/kg 30 minutes before ethanol administration in each run.
An experimental apparatus was a 2-compartments box (width 30 cm, length 60 cm, height 30 cm) made of acrylic plates and divided equally into a white compartment and a black compartment by a guillotine door provided in the middle of the box. In addition, the floor of the box had been made non-slip in the white compartment and slippery in the black compartment, that is, the box used was a so-called shuttle box capable of giving both a visual stimulus of black and white and a tactile stimulus of the floor.
Conditioning was carried out once a day for 6 days. Each rat was treated with ethanol (0.5 or 1 g/kg) or physiological saline and then confined in one of the compartment for 50 minutes. The next day, the rat was subjected to a treatment different from that carried out on the previous day, and then confined in the other compartment for 50 minutes. The above procedure was repeated three times. For minimizing the influence of the difference of the conditioning procedure on the result, a counter balance method was adopted, that is, there were employed the following 4 combinations of the ethanol treatment or the physiological saline treatment and the white or black compartment: • 1) ethanol and white; physiological saline and black on the next day, • 2) physiological saline and black; ethanol and white on the next day, • 3) ethanol and black; physiological saline and white on the next day, and • 4) physiological saline and white; ethanol and black on the next day.
As a control group, a group which had been given physiological saline instead of being subjected to ethanol treatment was conditioned in the same manner as above.
After 6 days of the conditioning procedure, each run of measuring the length of stay in each compartment was carried out for 15 minutes. Neither ethanol nor physiological saline was administered to the conditioned rats. In the apparatus, a platform (width 2 cm, length 5 cm) made of a wire net and having a gray color intermediate between white and black was set in the middle of the box, i.e., the compartmenting portion. The length of stay was measured as follows: each rat was placed on the platform, and then a time for which the forefeet and head of the rat were in the black or white compartment was measured as a length of stay in the black or white compartment, respectively, for 15 minutes after the rat got down the platform to become able to come from or go to any of the white and black compartments freely. The desire-arising effect for the drug treatment compartment, i.e., the place preference was determined in terms of a value obtained by subtracting the length of stay in the physiological saline treatment compartment from the length of stay in the drug treatment compartment.

[3] = Single-administration toxicity test; set-up: species or system Wistar strain rats; details: Wistar, rat, in vivo, oral, observation 14 days, read-out: Approximate LD50
Protocol: [Single-administration toxicity test]
Kind of animal: Wistar strain rats, male and female, 6 to 7 weeks old (at the time of administration). Number of animals: 5 males and 5 females in each group. Administration route: Oral. Number of groups: male 6 groups, female 6 groups. Administered drug: N,N-di-n-propyl-2-[4-methoxy-3-(2-phenylethoxy)phenyl]ethylamine hydrochloride. Dosage form: a solution in distilled water. Dose: male 312 to 891 mg/kg, female 240 to 685 mg/kg (common ratio […]). Observation time: 14 days.

D2 = D2 (Homo sapiens, UniProt P14416); details: result in words; cited from earlier work
Sequence of D2 (P14416 whole entry): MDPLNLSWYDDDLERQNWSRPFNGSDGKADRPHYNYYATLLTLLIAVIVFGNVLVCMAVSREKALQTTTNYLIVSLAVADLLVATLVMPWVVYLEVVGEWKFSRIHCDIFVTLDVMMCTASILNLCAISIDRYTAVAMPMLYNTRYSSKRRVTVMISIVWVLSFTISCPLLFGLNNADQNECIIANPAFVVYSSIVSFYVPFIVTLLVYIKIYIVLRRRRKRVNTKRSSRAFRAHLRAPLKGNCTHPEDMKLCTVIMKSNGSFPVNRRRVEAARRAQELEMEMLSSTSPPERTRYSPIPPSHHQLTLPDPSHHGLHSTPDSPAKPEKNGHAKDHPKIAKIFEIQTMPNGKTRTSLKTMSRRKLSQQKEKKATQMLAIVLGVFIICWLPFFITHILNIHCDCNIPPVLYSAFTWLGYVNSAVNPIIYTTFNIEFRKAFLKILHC

5-HT1A = target: T1, 5-HT1A (Homo sapiens, UniProt P08908); details: result in words; cited from earlier work
T1 sequence (P08908 1-422): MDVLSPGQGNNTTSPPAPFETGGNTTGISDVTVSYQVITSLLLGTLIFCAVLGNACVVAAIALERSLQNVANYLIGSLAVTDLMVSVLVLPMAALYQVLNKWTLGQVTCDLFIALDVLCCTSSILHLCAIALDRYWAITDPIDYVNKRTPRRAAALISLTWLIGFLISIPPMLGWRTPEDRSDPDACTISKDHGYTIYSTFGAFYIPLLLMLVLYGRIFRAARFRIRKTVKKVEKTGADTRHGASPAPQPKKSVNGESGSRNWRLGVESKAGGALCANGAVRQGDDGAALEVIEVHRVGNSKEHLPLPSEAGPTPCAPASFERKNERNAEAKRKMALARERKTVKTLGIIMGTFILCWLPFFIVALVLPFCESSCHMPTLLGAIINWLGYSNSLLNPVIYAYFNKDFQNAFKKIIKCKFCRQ

D1 = D1 (Homo sapiens, UniProt P21728); details: result in words; cited from earlier work
Sequence of D1 (P21728 whole entry): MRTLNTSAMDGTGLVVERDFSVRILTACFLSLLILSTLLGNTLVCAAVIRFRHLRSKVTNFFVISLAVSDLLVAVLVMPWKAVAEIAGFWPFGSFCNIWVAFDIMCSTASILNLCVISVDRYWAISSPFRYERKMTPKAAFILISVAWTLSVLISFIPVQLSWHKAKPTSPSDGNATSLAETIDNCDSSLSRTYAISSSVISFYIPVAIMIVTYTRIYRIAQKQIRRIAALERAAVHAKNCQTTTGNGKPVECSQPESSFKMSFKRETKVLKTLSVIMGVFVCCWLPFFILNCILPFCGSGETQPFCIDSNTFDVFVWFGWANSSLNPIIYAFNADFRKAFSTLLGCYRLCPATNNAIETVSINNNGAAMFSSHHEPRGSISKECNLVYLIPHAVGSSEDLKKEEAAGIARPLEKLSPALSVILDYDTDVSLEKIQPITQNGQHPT

5-HT2 = 5-HT2 (Homo sapiens, UniProt P28223); details: result in words; cited from earlier work
Sequence of 5-HT2 (P28223 whole entry): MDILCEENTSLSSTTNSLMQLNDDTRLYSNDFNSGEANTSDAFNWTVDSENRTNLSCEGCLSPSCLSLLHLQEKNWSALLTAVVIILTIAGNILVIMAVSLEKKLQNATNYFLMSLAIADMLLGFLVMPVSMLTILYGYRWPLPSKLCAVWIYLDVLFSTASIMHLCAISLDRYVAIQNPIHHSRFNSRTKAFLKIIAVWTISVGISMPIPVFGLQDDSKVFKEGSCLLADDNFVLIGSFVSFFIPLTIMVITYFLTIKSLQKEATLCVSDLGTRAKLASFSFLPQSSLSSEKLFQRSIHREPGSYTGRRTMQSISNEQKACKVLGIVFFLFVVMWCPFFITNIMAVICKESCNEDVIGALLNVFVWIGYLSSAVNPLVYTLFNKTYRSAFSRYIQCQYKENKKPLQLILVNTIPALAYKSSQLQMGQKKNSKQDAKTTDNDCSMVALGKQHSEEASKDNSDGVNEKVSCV

sigma receptor = details: result in words; cited from earlier work
[4] = orally administered in a dose of 0.1 mg/kg

## CCCN(CCC)CCc1cc(Cl)ccc1OCCc1ccccc1.O=C(O)C(=O)O [A, N,N-di-n-propyl-2-[5-chloro-2-(2-phenylethoxy)phenyl]ethylamine oxalate]
[1]; [4]
  Percentage of decrease in cocaine intake (%): 62.6%
[2]
  ED50: 0.3 mg/kg

## CCCN(CCC)CCCc1ccc(OC)c(OCCc2ccccc2)c1.Cl [C, N,N-di-n-propyl-3-[4-methoxy-3-(2-phenylethoxy)phenyl]propylamine hydrochloride]
[1]; [4]
  Percentage of decrease in cocaine intake (%): 77.1%
[2]
  ED50: 0.22 mg/kg

## CCCN(CCC)CCc1ccc(OC)c(OCCc2ccccc2)c1.Cl [Compound B, N,N-di-n-propyl-2-[4-methoxy-3-(2-phenylethoxy)phenyl]ethylamine hydrochloride]
[1]; [4]
  Percentage of decrease in cocaine intake (%): 89.3%
Alcohol dependence; 0.1 or 1 mg/kg, result in words
  ethanol dependence: suppressed the ethanol dependence in a dose-dependent manner
Alcohol dependence; Ethanol (0.5 g/kg) + B 0.1 mg/kg
  Desire-arising effect for ethanol treatment compartment: 104 ± 41
Alcohol dependence; Ethanol (0.5 g/kg) + B 1 mg/kg
  Desire-arising effect for ethanol treatment compartment: 11 ± 32
Alcohol dependence; Ethanol (1 g/kg) + B 0.1 mg/kg
  Desire-arising effect for ethanol treatment compartment: 101 ± 47
Alcohol dependence; Ethanol (1 g/kg) + B 1 mg/kg
  Desire-arising effect for ethanol treatment compartment: 9 ± 12
[2]
  ED50: 0.12 mg/kg
[3]; female rats
  LD50 at 14 days: 312 to 406 mg/kg
[3]; male rats
  LD50 at 14 days: 685 to 891 mg/kg

## CCCN(CCC)CCc1cccc(OC)c1OCCc1ccccc1.Cl [D, N,N-di-n-propyl-2-[3-methoxy-2-(2-phenylethoxy)phenyl]ethylamine hydrochloride]
[1]; [4]
  Percentage of decrease in cocaine intake (%): 49.3%
[2]
  ED50: 0.27 mg/kg

## CCCN(CCC)CCc1ccc(OC)c(OCCc2ccccc2)c1 [N,N-dipropyl-2-[4-methoxy-3-(2-phenylethoxy)phenyl]ethylamine]
D2
  affinity for D2: low affinity
5-HT1A
  affinity for 5-HT1A: low affinity
D1
  affinity for D1: low affinity
5-HT2
  affinity for 5-HT2: low affinity
Sigma receptor
  affinity to sigma receptor: high affinity

## C[C@@H]1CN(CCCn2c3ccccc3c3ccccc32)C[C@H](C)N1 [Rimcazole, reference compound]
[1]; orally administered in a dose of 10 mg/kg
  Percentage of decrease in cocaine intake (%): 28.0%
[2]
  ED50: 28 mg/kg
